Reference: patent US20260272934A1 (The United States of America, as represented by the …, priority 2023, published 2026)
Where two headings read alike, the source gives them in different places. Each block holds one compound with its values, some of them ahead of it.

Legend:
[1] = test system: multiple myeloma-derived L363 cells; test: Colorimetric MTS cell viability assay; assay type: cell-based; conditions: for Cell efficacy (GI50) Mean ± SD: N.S. = Not significant; for GI50: Homo sapiens, L-363, N.S. = Not significant, read-out: Cell efficacy (GI50) Mean ± SD
Source text: • *Data from Park, J. E., et al {Park, 2023 #3387}. **Data from Alverez C. N., et al {Alverez, 2020 #3186}. N. S., Not significant; N. D., Not determined. ^a IC50 values determined from at least three independent experiments except as noted in parentheses. b A colorimetric MTS cell viability assay carried out using multiple myeloma-derived L363 cells.

Plk2 PBD = test: FP-based inhibition assay; assay type: binding; conditions: N.S. = Not significant
Procedure: (§1) In the following, PBD1-3 fluorescence polarization (FP) binding assays were carried out for determining the Plk1 specificity. FP assays were carried out essentially as described previously {Liu, 2011 #2790; Qian, 2014 #1416}. All samples were analyzed approximately 30 min after reaction in a 384-well format using the SpectraMax Paradigm multi-mode microplate detection platform (Molecular Devices). Data were analyzed after carrying out at least three independent experiments using GraphPad Prism software version 7.

Plk3 PBD = test: FP-based inhibition assay; assay type: binding; conditions: N.S. = Not significant
Procedure: as §1

[2] = target: T1, full-length Plk1 / biotinylated PBIP1 phospho-T78 peptide interaction (Homo sapiens, UniProt P53350); conditions: *Data from Park, J. E., et al 2023; read-out: ELISA (IC50) Mean ± SEM; cited from earlier work
T1 construct: HA; EGFP; expressed in transfected cells; host or cells: HEK293A cells infected with adenovirus; total lysates

[3] = test system: multiple myeloma-derived L363 cells; conditions: MTS, *Data from Park, J. E., cited from earlier work
PBD1 = PBD1 (Homo sapiens, UniProt P53350); test: FP-based inhibition assay; assay type: binding; conditions: read-out: PBD1 IC50 ± SD
Procedure: as §1, with “FP assays were carried out essentially as described previously {Liu, 2011 #2790; Qian, 2014 #1416}.” left out

[4] = *Data from Park, J. E., et al 2023; cited from earlier work
[5] = target: T1, full-length Plk1 / biotinylated PBIP1 phospho-T78 peptide interaction; test: ELISA-based PBD1-binding inhibition assay; conditions: at least three independent experiments; read-out: ELISA (IC50) Mean ± SEM
[6] = Solubility remark in Table 1; assay type: physicochemical

T1 sequence (P53350 whole entry): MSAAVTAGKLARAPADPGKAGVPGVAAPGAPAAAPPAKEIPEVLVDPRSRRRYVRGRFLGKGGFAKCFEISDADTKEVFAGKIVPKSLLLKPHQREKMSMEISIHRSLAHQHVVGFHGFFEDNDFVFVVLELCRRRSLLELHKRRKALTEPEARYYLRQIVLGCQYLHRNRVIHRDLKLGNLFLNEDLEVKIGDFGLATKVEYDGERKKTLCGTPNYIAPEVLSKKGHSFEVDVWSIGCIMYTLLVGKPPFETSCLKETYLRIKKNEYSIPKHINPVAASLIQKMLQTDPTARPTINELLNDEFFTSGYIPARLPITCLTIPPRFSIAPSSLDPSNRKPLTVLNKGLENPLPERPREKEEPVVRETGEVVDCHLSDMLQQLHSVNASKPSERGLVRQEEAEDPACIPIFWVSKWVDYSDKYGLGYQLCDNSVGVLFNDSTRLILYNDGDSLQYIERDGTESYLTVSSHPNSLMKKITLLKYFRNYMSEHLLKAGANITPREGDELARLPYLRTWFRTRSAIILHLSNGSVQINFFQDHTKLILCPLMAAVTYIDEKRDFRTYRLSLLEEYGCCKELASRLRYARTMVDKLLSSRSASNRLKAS
PBD1, sequence (P53350 371-594 limits assumed): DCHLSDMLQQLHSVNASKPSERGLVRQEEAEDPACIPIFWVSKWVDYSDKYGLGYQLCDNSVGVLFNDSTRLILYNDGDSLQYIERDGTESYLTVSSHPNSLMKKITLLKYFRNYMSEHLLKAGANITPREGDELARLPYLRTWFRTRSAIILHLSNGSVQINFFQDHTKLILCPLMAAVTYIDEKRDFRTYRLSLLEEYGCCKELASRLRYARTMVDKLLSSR

SMILES: CC(=O)N1CCC[C@H]1C(=O)N[C@@H](CC(C)C)C(=O)N[C@@H](Cc1cnc[nH]1)C(=O)N[C@@H](CO)C(=O)N[C@H](C(=O)O)[C@@H](C)OP(=O)(O)O [Compound 2, PLHSpT, reference compound]
Plk2 PBD IC50 ± SD (Plk2 PBD): N.S. | Plk3 PBD IC50 ± SD (Plk3 PBD): N.S. | Cell efficacy (GI50) Mean ± SD [1]: N.S.

SMILES: CCCn1c(=O)c2sc(C)cc2n2c(Sc3c([N+](=O)[O-])ncn3C)nnc12 [Compound 4]
IC50 [2]: > 50 µM | solubility [4]: low solubility | GI50 ([3]; et al 2023, read-out: Cell efficacy (GI50) Mean ± SD): 4.88 ± 0.1 µM

SMILES: Cc1cc2c(s1)c(=O)n(CC1CC1)c1nnc(Sc3c([N+](=O)[O-])ncn3C)n21 [Compound 6, 4-(Cyclopropylmethyl)-7-methyl-1-((1-methyl-4-nitro-1H-imidazol-5-yl)thio) thieno[2,3-e][1,2,4]triazolo[4,3-a]pyrimidin-5 (4H)-one]
IC50 [5]: > 50 µM | GI50 [1]: 3.13 ± 0.15 µM | solubility [6]: low solubility

SMILES: CCCn1c(=O)c2oc3ccccc3c2n2c(Sc3c([N+](=O)[O-])ncn3C)nnc12 [Compound 8, 1-((1-Methyl-4-nitro-1H-imidazol-5-yl)thio)-4-propylbenzofuro[2,3-e][1,2,4]triazolo[4,3-a]pyrimidin-5(4H)-one]
IC50 [5]: > 50 µM | GI50 [1]: 8.31 ± 0.56 µM

SMILES: CCCn1c(=O)c2sc(Cl)cc2n2c(Sc3c([N+](=O)[O-])ncn3C)nnc12 [Compound 14, 7-Chloro-1-((1-methyl-4-nitro-1H-imidazol-5-yl)thio)-4-propylthieno[2,3-e][1,2,4]triazolo[4,3-a]pyrimidin-5 (4H)-one]
IC50 [5]: > 50 µM | GI50 [1]: 6.04 ± 0.17 µM

SMILES: CCCn1c(=O)c2sc(C(C)(C)C)cc2n2c(Sc3c([N+](=O)[O-])ncn3C)nnc12 [Compound 16, 7-(tert-Butyl)-1-((1-methyl-4-nitro-1H-imidazol-5-yl)thio)-4-propylthieno[2,3-e][1,2,4]triazolo[4,3-a]pyrimidin-5 (4H)-one]
IC50 [5]: > 50 µM | GI50 [1]: 4.19 ± 0.15 µM | solubility [6]: moderate solubility

SMILES: O=C(CCCCC1SCC2NC(=O)NC21)NCCOCCOCCOCCOCCC(=O)NCCCn1c(=O)c2cc(F)ccc2n2c(=S)[nH]nc12 (centres unmarked) [Compound 22, N-(3-(7-Fluoro-5-oxo-1-thioxo-1,2-dihydro-[1,2,4]triazolo[4,3-a]quinazolin-4 (5H)-yl)propyl)-1-(5-(2-oxohexahydro-1H-thieno[3,4-d]imidazol-4-yl)pentanamido)-3,6,9,12-tetraoxapentadecan-15-amide]
IC50 [5]: 9.32 ± 0.17 µM

Second part, led by results:

Cell efficacy (GI50) Mean ± SD [1]: N.S.
SMILES: CC(=O)N1CCC[C@H]1C(=O)N[C@@H](CC(C)C)C(=O)N[C@@H](Cc1cnc[nH]1)C(=O)N[C@@H](CO)C(=O)N[C@H](C(=O)O)[C@@H](C)O [Compound 1, PLHST, reference compound]

Plk2 PBD IC50 ± SD (Plk2 PBD): N.S. | Plk3 PBD IC50 ± SD (Plk3 PBD): N.S. | IC50 (PBD1): 0.0102 ± 0.0015 µM
SMILES: CCCn1c(=O)c2sc(C)cc2n2c(=S)[nH]nc12 [Compound 3]
IC50 [2]: 2.15 ± 0.13 µM | Cell efficacy (GI50) Mean ± SD ([3]; et al 2023): N.S.

IC50 [5]: 1.66 ± 0.04 µM | Plk2 PBD IC50 ± SD (Plk2 PBD): N.S. | Plk3 PBD IC50 ± SD (Plk3 PBD): N.S. | Cell efficacy (GI50) Mean ± SD [1]: N.S. | IC50 (PBD1): 0.0128 ± 0.0026 µM
SMILES: Cc1cc2c(s1)c(=O)n(CC1CC1)c1n[nH]c(=S)n21 [Compound 5, 4-(Cyclopropylmethyl)-7-methyl-1-thioxo-2,4-dihydrothieno[2,3-e][1,2,4]triazolo[4,3-a]pyrimidin-5 (1H)-one]

IC50 [5]: > 50 µM | GI50 [1]: 7.53 ± 0.43 µM
SMILES: CCCn1c(=O)c2oc3cccc(F)c3c2n2c(Sc3c([N+](=O)[O-])ncn3C)nnc12 [Compound 10, 10-Fluoro-1-((1-methyl-4-nitro-1H-imidazol-5-yl)thio)-4-propylbenzofuro[2,3-e][1,2,4]triazolo[4,3-a]pyrimidin-5 (4H)-one]

IC50 [5]: > 50 µM | GI50 [1]: 8.4 ± 0.74 µM | solubility [6]: moderate solubility
SMILES: CCCn1c(=O)c2sccc2n2c(Sc3c([N+](=O)[O-])ncn3C)nnc12 [Compound 12, 1-((1-Methyl-4-nitro-1H-imidazol-5-yl)thio)-4-propylthieno[2,3-e][1,2,4]triazolo[4,3-a]pyrimidin-5 (4H)-one]

IC50 [5]: > 50 µM | GI50 [1]: 7.05 ± 0.27 µM
SMILES: CCCn1c(=O)c2sc3ccccc3c2n2c(Sc3c([N+](=O)[O-])ncn3C)nnc12 [Compound 18, 1-((1-Methyl-4-nitro-1H-imidazol-5-yl)thio)-4-propylbenzo[4,5]thieno[2,3-e][1,2,4]triazolo[4,3-a]pyrimidin-5 (4H)-one]
